What is called IC50 is the concentration at which inhibition is half-maximal.

In the assay the target is T1, KRAS G12D (Homo sapiens, UniProt P01116, G12D).
T1 construct: made in house; host or cells: Escherichia coli BL21 (DE3), pET28a
The assay is described as follows: Inhibitory activity on KRAS G12D nucleotide (GDP-GTP) exchange reaction in vitro (SOS1-dependent, BODIPY FL GDP). Type of assay: biochemical. Particulars: BODIPY FL GDP-bound recombinant KRAS G12D, 25° C. 1 hour preincubation, then SOS1 and GMPPNP 30 minutes at room temperature. An excerpt:
Test Example: Evaluation of Inhibitory Activity of Compounds of Examples 1-21 on KRAS G12D Nucleotide (GDP-GTP) Exchange Reaction In Vitro
Recombinant KRAS G12D (conjugated N-terminus His6-tag, TEV protease cleavage site and KRAS G12D residues 1-169 (SEQ ID NO: 1), prepared by the method described below) and cleaved recombinant SOS1 (residues 564-1049 (SEQ ID NO: 2), prepared by the method described below) proteins were expressed in E. coli and purified by affinity chromatography.
To prepare BODIPY FL (fluorescent dye) GDP-bound KRAS G12D protein, 50 μM KRAS G12D protein was incubated with 0.5 mM BODIPY FL GDP in a loading buffer (20 mM Tris-HCl (pH 7.5), 50 mM NaCl, 1 mM DTT and 2.5 mM EDTA) for 1 hour on ice. After the incubation, MgCl2 was added to a final concentration of 10 mM, followed by incubation at room temperature for 30 minutes.
The mixture was allowed to pass through a NAP-5 column to remove free nucleotides, and purified BODIPY FL GDP-bound KRAS G12D protein was used for compound evaluation.
For the measurement of the inhibitory activity of compounds on GDP-GTP exchange rate of recombinant KRAS G12D, BODIPY FL GDP-bound KRAS G12D protein was incubated with various concentrations of compounds of Formula (I), i.e., compounds of Examples 1-21, in a reaction buffer (20 mM Tris-HCl (pH 7.5), 100 mM NaCl, 1 mM MgCl2, 2 mM DTT, 0.1% Tween 20) at 25° C. for 1 hour.
After the incubation, recombinant SOS1 and GMPPNP (guanosine-5′-[(β,γ)-imido]triphosphate, tetralithium salt) (Jena Bioscience GmbH, Jena, Germany) were added and incubated at room temperature for 30 minutes to proceed SOS1-dependent GDP-GTP exchange reaction on KRAS G12D. Replacement of BODIPY FL GDP by GMPPNP was measured by calculating the ratio of fluorescence intensities of BODIPY FL before and after the exchange reaction.
Inhibition % was calculated by setting the fluorescence ratio from the reaction without test compound (DMSO control) and the fluorescence ratio from the reaction without SOS1 and GMPPNP as 0% and 100% inhibition, respectively. IC50 values were calculated from a dose titration curve using curve fitting by XLfit software (IDBS, Boston, Massachusetts, US).

Molecules are shown by their SMILES.

T1 sequence (P01116 with tags, fused parts or gaps isoform P01116-2 G12D): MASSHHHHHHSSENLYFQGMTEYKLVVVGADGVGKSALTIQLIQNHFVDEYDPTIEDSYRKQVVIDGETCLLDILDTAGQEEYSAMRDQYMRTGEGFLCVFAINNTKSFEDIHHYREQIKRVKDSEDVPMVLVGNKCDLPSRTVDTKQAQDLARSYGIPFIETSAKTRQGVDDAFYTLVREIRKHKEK

As for `C[C@@H]1NC[C@H]1N(C)C(=O)c1c(Cl)nc(CNc2n[nH]c3cc(Cl)c(C(C)(C)C)cc23)n1C` (relative stereo) [Example 11], the IC50 was determined as 43.7 µM.
In the case of `C[C@H]1CNC[C@@H]1N(C)C(=O)c1c(Cl)nc(CNc2n[nH]c3cc(Cl)c(C(C)(C)C)cc23)n1C` (relative stereo) [Example 13, 2-(((5-(tert-butyl)-6-chloro-1H-indazol-3-yl)amino)methyl)-4-chloro-N,1-dimethyl-N-(trans-4-methylpyrrolidin-3-yl)-1H-imidazole-5-carboxamide], the IC50 was 17.1 µM.
As for `C[C@@H]1CNC[C@@H]1N(C)C(=O)c1c(Cl)nc(CNc2n[nH]c3cc(Cl)c(C(C)(C)C)cc23)n1C` (relative stereo) [Example 14, 2-(((5-(tert-butyl)-6-chloro-1H-indazol-3-yl)amino)methyl)-4-chloro-N,1-dimethyl-N-(cis-4-methylpyrrolidin-3-yl)-1H-imidazole-5-carboxamide], the IC50 stood at 43.1 µM.
Next, `CN(C(=O)c1c(Cl)nc(CNc2n[nH]c3cc(Cl)c(C(C)(C)C)cc23)n1C)C1CNC1` [Example 1, N-(azetidin-3-yl)-2-(((5-(tert-butyl)-6-chloro-1H-indazol-3-yl)amino)methyl)-4-chloro-N,1-dimethyl-1H-imidazole-5-carboxamide]: 20.7 µM.
Next, `CN(C(=O)c1c(Cl)nc(CNc2n[nH]c3cc(Cl)c(C(C)(C)C)cc23)n1C)[C@H]1CCNC1` [Example 2, (S)-2-(((5-(tert-butyl)-6-chloro-1H-indazol-3-yl)amino)methyl)-4-chloro-N,1-dimethyl-N-(pyrrolidin-3-yl)-1H-imidazole-5-carboxamide]: 12.4 µM; `CN(C(=O)c1c(Cl)nc(CNc2n[nH]c3cc(Cl)c(C(C)(C)C)cc23)n1C)[C@@H]1CCNC1` [Example 3, (R)-2-(((5-(tert-butyl)-6-chloro-1H-indazol-3-yl)amino)methyl)-4-chloro-N,1-dimethyl-N-(pyrrolidin-3-yl)-1H-imidazole-5-carboxamide]: 18.7 µM; `Cn1c(CNc2n[nH]c3cc(Cl)c(C(C)(C)C)cc23)nc(Cl)c1C(=O)N1CCCNCC1` [Example 4, (2-(((5-(tert-butyl)-6-chloro-1H-indazol-3-yl)amino)methyl)-4-chloro-1-methyl-1H-imidazol-5-yl)(1,4-diazepan-1-yl)methanone]: 38 µM.
`CC(C)N1CC[C@@H](n2c(CNc3n[nH]c4cc(Cl)c(C(C)(C)C)cc34)nc(Cl)c2C(=O)N(C)[C@@H]2CCNC2)C1` [Example 5, 2-(((5-(tert-butyl)-6-chloro-1H-indazol-3-yl)amino)methyl)-4-chloro-1-((R)-1-isopropylpyrrolidin-3-yl)-N-methyl-N-((R)-pyrrolidin-3-yl)-1H-imidazole-5-carboxamide]: the IC50 came out at 1.3 µM.
Take `CC(C)N1CC[C@@H](n2c(CNc3n[nH]c4cc(Cl)c(C(C)(C)C)cc34)nc(Cl)c2C(=O)N(C)C2CNC2)C1` [Example 6, (R)-N-(azetidin-3-yl)-2-(((5-(tert-butyl)-6-chloro-1H-indazol-3-yl)amino)methyl)-4-chloro-1-(1-isopropylpyrrolidin-3-yl)-N-methyl-1H-imidazole-5-carboxamide]: the half-inhibitory concentration (IC50) came to 3.8 µM.
On to `CN(CCN)C(=O)c1c(Cl)nc(CNc2n[nH]c3cc(Cl)c(C(C)(C)C)cc23)n1C` [Example 7, N-(2-aminoethyl)-2-(((5-(tert-butyl)-6-chloro-1H-indazol-3-yl)amino)methyl)-4-chloro-N,1-dimethyl-1H-imidazole-5-carboxamide], for which the half-inhibitory concentration (IC50) was found to be 43.5 µM.
Turning to `CC(C)N1CC[C@@H](n2c(CNc3n[nH]c4cc(Cl)c(C(C)(C)C)cc34)nc(Cl)c2C(=O)N(C)CCN)C1` [Example 8, (R)-N-(2-aminoethyl)-2-(((5-(tert-butyl)-6-chloro-1H-indazol-3-yl)amino)methyl)-4-chloro-1-(1-isopropylpyrrolidin-3-yl)-N-methyl-1H-imidazole-5-carboxamide], the IC50 was determined as 35.3 µM.
The figure for `CC[C@@H]1CNC[C@@H]1N(C)C(=O)c1c(Cl)nc(CNc2n[nH]c3cc(Cl)c(C(C)(C)C)cc23)n1C` [Example 9, 2-(((5-(tert-butyl)-6-chloro-1H-indazol-3-yl)amino)methyl)-4-chloro-N-((3R,4R)-4-ethylpyrrolidin-3-yl)-N,1-dimethyl-1H-imidazole-5-carboxamide] is 33.5 µM.
The figure for `CN(C(=O)c1c(Cl)nc(CNc2n[nH]c3cc(Cl)c(C(C)(C)C)cc23)n1C)[C@@H]1CNCC12CC2` [Example 10, (S)-2-(((5-(tert-butyl)-6-chloro-1H-indazol-3-yl)amino)methyl)-4-chloro-N,1-dimethyl-N-(5-azaspiro[2.4]heptan-7-yl)-1H-imidazole-5-carboxamide] is 46.9 µM.
Next, `CN[C@H]1C[C@@H]1N(C)C(=O)c1c(Cl)nc(CNc2n[nH]c3cc(Cl)c(C(C)(C)C)cc23)n1C` [Example 12, 2-(((5-(tert-butyl)-6-chloro-1H-indazol-3-yl)amino)methyl)-4-chloro-N,1-dimethyl-N-((1S,2S)-2-(methylamino)cyclopropyl)-1H-imidazole-5-carboxamide]: 38.2 µM; `CN(C(=O)c1c(Cl)nc(CNc2cc(C(C)(C)C)c(Cl)cc2O)n1C)[C@@H]1CCNC1` [Example 15, (R)-2-(((5-(tert-butyl)-4-chloro-2-hydroxyphenyl)amino)methyl)-4-chloro-N,1-dimethyl-N-(pyrrolidin-3-yl)-1H-imidazole-5-carboxamide]: 32.9 µM.
In the case of `CN(C(=O)c1c(Cl)nc(CNc2cc(C(C)(C)C)c(Cl)cc2O)n1C)[C@H]1CCNC1` [Example 16, (S)-2-(((5-(tert-butyl)-4-chloro-2-hydroxyphenyl)amino)methyl)-4-chloro-N,1-dimethyl-N-(pyrrolidin-3-yl)-1H-imidazole-5-carboxamide], the IC50 amounted to 26.2 µM.
`CN(C(=O)c1c(Cl)nc(CNc2cc(C(C)(C)C)c(Cl)cc2O)n1C)C1CNC1` [Example 17, N-(azetidin-3-yl)-2-(((5-(tert-butyl)-4-chloro-2-hydroxyphenyl)amino)methyl)-4-chloro-N,1-dimethyl-1H-imidazole-5-carboxamide]: the IC50 was 12 µM.
Next, `CC(C)N1CC[C@@H](n2c(CNc3cc(C(C)(C)C)c(Cl)cc3O)nc(Cl)c2C(=O)N(C)[C@@H]2CCNC2)C1` [Example 18, 2-(((5-(tert-butyl)-4-chloro-2-hydroxyphenyl)amino)methyl)-4-chloro-1-((R)-1-isopropylpyrrolidin-3-yl)-N-methyl-N-((R)-pyrrolidin-3-yl)-1H-imidazole-5-carboxamide]: 1.6 µM; `CC(C)N1CC[C@@H](n2c(CNc3cc(C(C)(C)C)c(Cl)cc3O)nc(Cl)c2C(=O)N(C)[C@H]2CCNC2)C1` [Example 19, 2-(((5-(tert-butyl)-4-chloro-2-hydroxyphenyl)amino)methyl)-4-chloro-1-((R)-1-isopropylpyrrolidin-3-yl)-N-methyl-N-((S)-pyrrolidin-3-yl)-1H-imidazole-5-carboxamide]: 3.7 µM; `CC(C)N1CC[C@@H](n2c(CNc3cc(C(C)(C)C)c(Cl)cc3O)nc(Cl)c2C(=O)N(C)C2CNC2)C1` [Example 20, (R)-N-(azetidin-3-yl)-2-(((5-(tert-butyl)-4-chloro-2-hydroxyphenyl)amino)methyl)-4-chloro-1-(1-isopropylpyrrolidin-3-yl)-N-methyl-1H-imidazole-5-carboxamide]: 3.2 µM.
As for `CN(C(=O)c1c(Cl)nc(CNc2n[nH]c3cc(Cl)c(C(C)(C)C)cc23)n1C)C1CCNC1` (stereo not drawn) [Example 21, 2-(((5-(tert-butyl)-6-chloro-1H-indazol-3-yl)amino)methyl)-4-chloro-N,1-dimethyl-N-(pyrrolidin-3-yl)-1H-imidazole-5-carboxamide], the IC50 came to 31.5 µM.

The record behind these values is patent publication US12643885B2, “KRAS G12D protein inhibitors” (TAIHO PHARMACEUTICAL CO., LTD., priority 2020, dated 2026).
